Source: ChEMBL document CHEMBL4350967, “The Trifluoromethyl Group as a Bioisosteric Replacement of the Aliphatic Nitro Group in CB1 Receptor Positive Allosteric Modulators” (J Med Chem, 2019)

Key:
[1] = biological target: T1, Cannabinoid receptor 1 (Homo sapiens, UniProt P21554)
[2] = biological target: T1, Cannabinoid receptor 1; test: Positive allosteric modulation of human CB1 receptor expressed in CHOK1 cells assessed as increase in CP55940-induced beta-arrestin recruitment preincubated for 30 mins followed by CP55940 addition and measured after 90 to 180 mins by PathHunter assay; type: cell-based
[3] = biological target: T1, Cannabinoid receptor 1; test: Agonist activity at human CB1 receptor expressed in CHOK1 cells assessed as induction of beta-arrestin recruitment measured after 30 mins by PathHunter assay; type: cell-based
[4] = biological target: T1, Cannabinoid receptor 1; test: Agonist activity at human Gi/Go-coupled CB1 receptor expressed in CHOK1 cells assessed as inhibition of forskolin-stimulated cAMP production measured after 30 mins by Hit-hunter assay relative to CP55940; type: cell-based; settings: 0.5 h, read-out: Emax
[5] = biological target: T1, Cannabinoid receptor 1; test: Agonist activity at human Gi/Go-coupled CB1 receptor expressed in CHOK1 cells assessed as inhibition of forskolin-stimulated cAMP production measured after 30 mins by Hit-hunter assay
[6] = biological target: T1, Cannabinoid receptor 1; test: Positive allosteric modulation of human CB1 receptor expressed in CHOK1 cells assessed as increase in CP55940-induced beta-arrestin recruitment at 1 uM preincubated for 30 mins followed by CP55940 addition and measured after 90 to 180 mins by PathHunter assay relative to CP55940; type: cell-based
[7] = Half life in human liver microsomes at 3 uM in presence of NADPH by LC-MS/MS analysis; type: ADME, Microsome
[8] = Half life in rat liver microsomes at 3 uM in presence of NADPH by LC-MS/MS analysis; type: ADME, Microsome
[9] = biological target: T1, Cannabinoid receptor 1; test: Positive allosteric modulation of human CB1 receptor expressed in CHOK1 cells assessed as increase in CP55940-induced beta-arrestin recruitment at 500 nM preincubated for 30 mins followed by CP55940 addition and measured after 90 to 180 mins by PathHunter assay relative to CP55940; type: cell-based
[10] = biological target: T1, Cannabinoid receptor 1; test: Positive allosteric modulation of human CB1 receptor expressed in CHOK1 cells assessed as increase in CP55940-induced beta-arrestin recruitment preincubated for 30 mins followed by CP55940 addition and measured after 90 to 180 mins by PathHunter assay relative to CP55940; type: cell-based
[11] = biological target: T1, Cannabinoid receptor 1; test: Positive allosteric modulation of human CB1 receptor expressed in CHOK1 cells assessed as increase in CP55940-induced beta-arrestin recruitment at 200 nM preincubated for 30 mins followed by CP55940 addition and measured after 90 to 180 mins by PathHunter assay relative to CP55940; type: cell-based
[12] = biological target: T1, Cannabinoid receptor 1; test: Positive allosteric modulation of human CB1 receptor expressed in CHOK1 cells assessed as increase in CP55940-induced beta-arrestin recruitment at 1000 nM preincubated for 30 mins followed by CP55940 addition and measured after 90 to 180 mins by PathHunter assay relative to CP55940; type: cell-based

T1 sequence (P21554 whole entry): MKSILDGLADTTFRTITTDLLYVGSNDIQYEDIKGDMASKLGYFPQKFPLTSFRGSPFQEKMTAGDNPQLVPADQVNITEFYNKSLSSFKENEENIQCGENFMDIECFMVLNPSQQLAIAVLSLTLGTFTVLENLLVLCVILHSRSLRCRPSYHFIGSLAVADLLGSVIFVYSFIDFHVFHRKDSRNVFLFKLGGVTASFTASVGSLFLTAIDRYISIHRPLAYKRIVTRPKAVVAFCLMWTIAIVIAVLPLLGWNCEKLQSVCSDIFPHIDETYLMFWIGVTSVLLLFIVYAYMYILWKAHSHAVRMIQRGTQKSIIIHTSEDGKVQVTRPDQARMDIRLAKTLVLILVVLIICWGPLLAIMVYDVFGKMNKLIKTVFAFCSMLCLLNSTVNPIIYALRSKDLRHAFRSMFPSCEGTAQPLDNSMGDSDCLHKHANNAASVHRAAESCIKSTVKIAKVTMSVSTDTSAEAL

`N#Cc1ccc2c([C@H](CC(F)(F)F)c3cccs3)c(-c3ccccc3)[nH]c2c1` gave an EC50 [1] of 0.04 µM, an EC50 [2] of 0.342 µM and an EC50 [3] of 1.21 µM. It also gave an Emax [4] of 89% and an EC50 [5] of 0.076 µM.
With `CC(C)CN(C(=O)C(F)(F)F)c1c(-c2ccccc2)[nH]c2ccccc12` the Activity [6] was 50%.
For `O=C(N(CC1CC1)c1c(-c2ccccc2)[nH]c2ccccc12)C(F)(F)F`, the Activity [6] was 50%.
Compound `FC(F)(F)CC(c1cccs1)c1c(C2CCCC2)[nH]c2cc(C(F)(F)F)ccc12` (racemic) has a t1/2 [7] of 47.1 min, a t1/2 [8] of 44.4 min and an EC50 [2] of 0.301 µM. For the same compound, the Activity [9] was > 50%, the EC50 [3] was 0.755 µM and the Emax [10] was 162%.
`CC(=O)c1ccc2c(C(CC(F)(F)F)c3cccs3)c(-c3ccccc3)[nH]c2c1` (racemic) gave a t1/2 [7] of 51.2 min, a t1/2 [8] of 12.2 min and an EC50 [2] of 0.158 µM. The EC50 [3] was 0.741 µM, the Activity [11] was > 50% and the Emax [10] was 121%.
With `Cc1ccc2c(C(c3cccs3)C(C#N)C#N)c(-c3ccccc3)[nH]c2c1` (racemic) the Activity [12] was > 50%, the t1/2 [7] was 31.2 min and the t1/2 [8] was 4.9 min.
With `N#Cc1ccc2[nH]c(C3CCCCC3)c(C(C[N+](=O)[O-])c3cccs3)c2c1` (racemic) the Activity [6] was < 50%, the t1/2 [7] was 21.4 min and the t1/2 [8] was 3.8 min.
`O=C(O)CC(c1ccccc1)c1c(-c2ccccc2)[nH]c2ccccc12` (racemic) [listing 1 of 2 here] showed a t1/2 [7] of 62.7 min.
`O=[N+]([O-])CC(c1cccs1)c1c(-c2ccccc2)[nH]c2cc(C(F)(F)F)ccc12` (racemic) gave a t1/2 [7] of 30.7 min, a t1/2 [8] of 15.6 min and an EC50 [2] of 0.284 µM. It also gave an EC50 [3] of 0.974 µM.
In the case of `N#CCC(c1ccccc1)c1c(-c2ccccc2)[nH]c2cc(Cl)ccc12` (racemic), the t1/2 [7] is reported as 43.2 min, the t1/2 [8] is reported as 22.5 min and the EC50 [2] is reported as 1.11 µM. For the same compound, the EC50 [3] was 2.35 µM.
In the case of `N#CC(C#N)C(c1ccccc1)c1c(-c2ccccc2)[nH]c2cc(Cl)ccc12` (racemic), the Activity [6] is reported as < 50%, the t1/2 [7] is reported as 29.6 min and the t1/2 [8] is reported as 13.5 min.
With `Cc1ccc2c(C(C[N+](=O)[O-])c3cccs3)c(-c3ccc(Cl)cc3)[nH]c2c1` (racemic) the Activity [6] was < 50%, the t1/2 [7] was 24.2 min and the t1/2 [8] was 9.8 min.
`O=[N+]([O-])CC(c1cccs1)c1c(-c2ccccc2)[nH]c2cc(Cl)ccc12` (racemic) showed a t1/2 [7] of 32.7 min, a t1/2 [8] of 13.8 min and an EC50 [2] of 0.462 µM. For the same compound, the Activity [9] was > 50% and the EC50 [3] was 1.53 µM.
Work on `OC(C(c1ccccc1)c1c(-c2ccccc2)[nH]c2ccccc12)C(F)(F)F` (racemic) yielded an Activity [6] of 30 to 50%, a t1/2 [7] of 39.4 min and a t1/2 [8] of 18.2 min.
In the case of `FC(F)(F)CC(c1cccs1)c1c(-c2ccccc2)[nH]c2cc(C(F)(F)F)ccc12` (racemic), the t1/2 [7] is reported as 49.7 min, the t1/2 [8] is reported as 36.7 min and the EC50 [2] is reported as 0.322 µM. The Activity [9] was > 50%, the EC50 [3] was 0.801 µM and the Emax [10] was 203%.
With `N#Cc1ccc2[nH]c(-c3ccccc3)c(C(C[N+](=O)[O-])c3cccs3)c2c1` (racemic) the Activity [6] was < 50%, the t1/2 [7] was 49.4 min and the t1/2 [8] was 8.2 min.
In the case of `CC(=O)Nc1ccc2c(C(CC(F)(F)F)c3cccs3)c(-c3ccccc3)[nH]c2c1` (racemic), the Activity [6] is reported as < 50%.
With `CC(=O)c1ccc(-c2[nH]c3cc(Cl)ccc3c2C(C[N+](=O)[O-])c2cccs2)cc1` (racemic) the Activity [6] was < 50%.
With `CN(C)c1ccc(-c2[nH]c3cc(Cl)ccc3c2C(C[N+](=O)[O-])c2cccs2)cc1` (racemic) the Activity [6] was < 50%.
In the case of `COC(=O)c1ccc(-c2[nH]c3cc(Cl)ccc3c2C(C[N+](=O)[O-])c2cccs2)cc1` (racemic), the Activity [6] is reported as < 50%.
With `COC(=O)c1ccc2c(C(CC(F)(F)F)c3cccs3)c(-c3ccccc3)[nH]c2c1` (racemic) the Activity [11] was > 50% and the Emax [10] was 88%.
With `COc1ccc(-c2[nH]c3cc(Cl)ccc3c2C(C[N+](=O)[O-])c2cccs2)cc1` (racemic) the Activity [6] was < 50%.
With `COc1cccc(-c2[nH]c3cc(Cl)ccc3c2C(C[N+](=O)[O-])c2cccs2)c1` (racemic) the Activity [6] was < 50%.
In the case of `CS(=O)(=O)Nc1ccc2c(C(CC(F)(F)F)c3cccs3)c(-c3ccccc3)[nH]c2c1` (racemic), the Activity [6] is reported as < 50%.
With `CS(=O)(=O)c1ccc(-c2[nH]c3cc(Cl)ccc3c2C(C[N+](=O)[O-])c2cccs2)cc1` (racemic) the Activity [6] was < 50%.
With `Cc1ccc2[nH]c(-c3ccccc3)c(C(CC(F)(F)F)c3ccccc3)c2c1` (racemic) the Activity [6] was < 50%.
For `Cc1ccc2[nH]c(-c3ccccc3)c(C(CC(F)(F)F)c3cccs3)c2c1` (racemic), the Activity [6] was < 50%.
In the case of `Cc1ccc2[nH]c(-c3ccccc3)c(C(C[N+](=O)[O-])c3cccs3)c2c1` (racemic), the Activity [12] is reported as > 50%.
For `Cc1ccc2c(C(CC#N)c3ccccc3)c(-c3ccccc3)[nH]c2c1` (racemic), the Activity [12] was > 50%.
In the case of `Cc1ccc2c(C(CC(F)(F)F)c3ccco3)c(-c3ccccc3)[nH]c2c1` (racemic), the Activity [12] is reported as > 50%.
For `Cc1ccc2c(C(CC(F)(F)F)c3cccs3)c(-c3ccccc3)[nH]c2c1` (racemic), the Activity [9] was > 50%.
With `Cc1ccc2c(C(CC3CC3)CC(F)(F)F)c(-c3ccccc3)[nH]c2c1` (racemic) the Activity [12] was > 50%.
In the case of `Cc1ccc2c(C(C[N+](=O)[O-])c3cccs3)c(-c3ccc(F)cc3)[nH]c2c1` (racemic), the Activity [6] is reported as < 50%.
In the case of `Cc1ccc2c(C(C[N+](=O)[O-])c3cccs3)c(C3CC3)[nH]c2c1` (racemic), the Activity [12] is reported as > 50%.
For `Cc1ccc2c(C(C[N+](=O)[O-])c3cccs3)c(C3CCCC3)[nH]c2c1` (racemic), the Activity [12] was > 50%.
With `Cc1ccc2c(C(C[N+](=O)[O-])c3cccs3)c(C3CCCCC3)[nH]c2c1` (racemic) the Activity [6] was < 50%.
For `Cc1ccc2c(C(c3ccccc3)C(C#N)C#N)c(-c3ccccc3)[nH]c2c1` (racemic), the Activity [12] was > 50%.
For `FC(F)(F)CC(c1ccccc1)c1c(-c2ccccc2)[nH]c2cc(C(F)(F)F)ccc12` (racemic), the Activity [11] was > 50%.
With `FC(F)(F)CC(c1ccccc1)c1c(-c2ccccc2)[nH]c2ccccc12` (racemic) the Activity [6] was 30 to 50% and the Activity [12] was > 50%.
In the case of `FC(F)(F)CC(c1ccco1)c1c(-c2ccccc2)[nH]c2cc(Cl)ccc12` (racemic), the Activity [9] is reported as > 50%.
For `FC(F)(F)CC(c1cccs1)c1c(-c2ccccc2)[nH]c2cc(Cl)ccc12` (racemic), the Activity [11] was > 50%.
For `N#CC(C#N)C(c1ccccc1)c1c(-c2ccccc2)[nH]c2ccccc12` (racemic), the Activity [6] was < 50%.
With `N#CCC(c1ccccc1)c1c(-c2ccccc2)[nH]c2ccccc12` (racemic) the Activity [6] was < 50%.
In the case of `N#Cc1ccc(-c2[nH]c3cc(Cl)ccc3c2C(C[N+](=O)[O-])c2cccs2)cc1` (racemic), the Activity [6] is reported as < 50%.
For `N#Cc1ccc2c(C(C[N+](=O)[O-])c3cccs3)c(-c3ccccc3)[nH]c2c1` (racemic), the Activity [12] was > 50%.
For `N#Cc1cccc(-c2[nH]c3cc(Cl)ccc3c2C(C[N+](=O)[O-])c2cccs2)c1` (racemic), the Activity [6] was < 50%.
With `Nc1ccc2c(C(CC(F)(F)F)c3cccs3)c(-c3ccccc3)[nH]c2c1` (racemic) the Activity [6] was < 50%.
Work on `O=C(C(c1ccccc1)c1c(-c2ccccc2)[nH]c2ccccc12)C(F)(F)F` (racemic) yielded an Activity [6] of 30 to 50%.
For `O=C(O)CC(c1ccccc1)c1c(-c2ccccc2)[nH]c2ccccc12` (racemic) [listing 2 of 2 here], the Activity [6] was < 50%.
In the case of `O=C(O)c1ccc(-c2[nH]c3cc(Cl)ccc3c2C(C[N+](=O)[O-])c2cccs2)cc1` (racemic), the Activity [6] is reported as < 50%.
In the case of `O=C(O)c1ccc2c(C(CC(F)(F)F)c3cccs3)c(-c3ccccc3)[nH]c2c1` (racemic), the Activity [6] is reported as < 50%.
For `O=[N+]([O-])CC(c1cccs1)c1c(-c2ccc(Cl)cc2)[nH]c2cc(Cl)ccc12` (racemic), the Activity [6] was < 50%.
In the case of `O=[N+]([O-])CC(c1cccs1)c1c(-c2ccc(F)cc2)[nH]c2cc(Cl)ccc12` (racemic), the Activity [6] is reported as < 50%.
With `O=[N+]([O-])CC(c1cccs1)c1c(-c2ccccc2)[nH]c2ccc([N+](=O)[O-])cc12` (racemic) the Activity [6] was < 50%.
In the case of `OCC(c1ccccc1)c1c(-c2ccccc2)[nH]c2ccccc12` (racemic), the Activity [6] is reported as < 50%.
For `OCc1ccc2c(C(CC(F)(F)F)c3cccs3)c(-c3ccccc3)[nH]c2c1` (racemic), the Activity [6] was < 50%.
With `COC(=O)c1ccc2c(C(CC(F)(F)F)c3cccs3)c(-c3ccccc3)[nH]c2c1` (single isomer, unassigned; (+)) the Activity [11] was > 50% and the Emax [10] was 156%.
With `O=C(O)CC(c1ccccc1)c1c(-c2ccccc2)[nH]c2ccccc12` (single isomer, unassigned; (+)) the Activity [6] was < 50%.
For `COC(=O)c1ccc2c(C(CC(F)(F)F)c3cccs3)c(-c3ccccc3)[nH]c2c1` (single isomer, unassigned; (-)), the Activity [11] was > 50%.
In the case of `O=C(O)CC(c1ccccc1)c1c(-c2ccccc2)[nH]c2ccccc12` (stereo in doubt; (-)-26), the Activity [6] is reported as < 50%.
